According to ChEMBL document CHEMBL4368907 (J Med Chem, 2019):
Numbered stars: 1 amine (or outer) side, 2 acyl side, 3 side chain; on linkers, the order of the positions; unused ones are H or OH. Square brackets hold non-standard residues; d marks the D form. Peptide text beside a SMILES is read from it. * marks the point of attachment. sY = N[C@@H](Cc1ccc(OS(=O)(=O)O)cc1)C(=O)O; C18 diacid = O=C(O)CCCCCCCCCCCCCCCCC(=O)*; NMe1Nal = CN[C@@H](Cc1cccc2ccccc12)C(=O)O; γGlu = O=C(O)[C@H](CCC(=O)[*:2])N[*:1]; Hyp = O=C(O)[C@@H]1C[C@@H](O)CN1; NMeF = CN[C@@H](Cc1ccccc1)C(=O)O; NMeD = CN[C@@H](CC(=O)O)C(=O)O; dNMeD = CN[C@H](CC(=O)O)C(=O)O; Nle = CCCC[C@H](N)C(=O)O; X1 = O=C(Cc1ccc(O)cc1)*; AEEA = NCCOCCOCC(=O)O

Key:
[1] = biological target: T1, Cholecystokinin receptor type A (Homo sapiens, UniProt P32238); test: Displacement of [125I]-CCK-8 from human CCK1R expressed in human 1321N1 cell membranes after 2 hrs by SPA assay
T1 sequence (P32238 whole entry): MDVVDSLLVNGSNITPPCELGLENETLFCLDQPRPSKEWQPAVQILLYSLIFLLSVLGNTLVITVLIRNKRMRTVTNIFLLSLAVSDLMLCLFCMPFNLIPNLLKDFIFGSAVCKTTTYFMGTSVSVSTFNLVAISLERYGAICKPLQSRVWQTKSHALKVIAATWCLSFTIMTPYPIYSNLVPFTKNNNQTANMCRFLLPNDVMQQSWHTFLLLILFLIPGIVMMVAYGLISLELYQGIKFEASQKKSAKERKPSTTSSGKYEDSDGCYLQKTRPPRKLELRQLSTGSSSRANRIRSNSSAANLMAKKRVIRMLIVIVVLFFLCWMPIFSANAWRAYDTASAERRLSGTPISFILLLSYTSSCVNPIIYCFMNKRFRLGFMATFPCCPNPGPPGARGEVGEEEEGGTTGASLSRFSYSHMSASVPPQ

[2] = biological target: T2, Gastrin/cholecystokinin type B receptor (Homo sapiens, UniProt P32239); test: Displacement of [125I]-CCK-8 from human CCK2R expressed in human 1321N1 cell membranes after 2 hrs by SPA assay
T2 sequence (P32239 whole entry): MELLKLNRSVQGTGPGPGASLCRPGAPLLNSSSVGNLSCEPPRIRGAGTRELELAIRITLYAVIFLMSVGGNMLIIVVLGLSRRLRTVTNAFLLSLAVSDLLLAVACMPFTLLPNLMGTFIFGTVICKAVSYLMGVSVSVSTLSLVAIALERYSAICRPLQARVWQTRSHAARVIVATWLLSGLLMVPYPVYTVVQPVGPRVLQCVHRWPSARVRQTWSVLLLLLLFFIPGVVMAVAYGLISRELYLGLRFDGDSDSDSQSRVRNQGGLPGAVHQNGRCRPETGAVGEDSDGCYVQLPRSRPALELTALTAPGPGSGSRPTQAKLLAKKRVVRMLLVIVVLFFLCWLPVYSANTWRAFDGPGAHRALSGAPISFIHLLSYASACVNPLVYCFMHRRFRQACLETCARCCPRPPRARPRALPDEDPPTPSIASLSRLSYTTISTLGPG

[3] = biological target: T1, Cholecystokinin receptor type A; test: Agonist activity at human CCK1R expressed in human 1321N1 cells assessed as IP1 accumulation after 1 hr by HTRF assay; type: functional, cell-based
[4] = biological target: T2, Gastrin/cholecystokinin type B receptor; test: Agonist activity at human CCK2R expressed in human 1321N1 cells assessed as IP1 accumulation after 1 hr by HTRF assay; type: functional, cell-based

Row | IC50 [1] | IC50 [2] | EC50 [3] | EC50 [4] | pIC50 [1] | pIC50 [2] | pEC50 [3] | pEC50 [4] | SMILES
1 | 0.0871 nM | 0.288 nM | 0.115 nM | 0.457 nM |  |  |  |  | CCCC[C@H](NC(=O)[C@H](Cc1c[nH]c2ccccc12)NC(=O)CNC(=O)[C@H](CC(C)C)NC(=O)[C@H](Cc1ccc(OS(=O)(=O)O)cc1)NC(=O)[C@H](CC(=O)O)NC(=O)COCCOCCNC(=O)COCCOCCNC(=O)CC[C@H](NC(=O)CCCCCCCCCCCCCCCCC(=O)O)C(=O)O)C(=O)N[C@@H](CC(=O)O)C(=O)N(C)[C@@H](Cc1ccccc1)C(N)=O
2 | 0.794 nM | 2.14 nM | 0.11 nM | 0.631 nM |  |  |  |  | CCCC[C@H](NC(=O)[C@H](Cc1ccc(OS(=O)(=O)O)cc1)NC(=O)[C@H](CC(=O)O)NC(=O)COCCOCCNC(=O)COCCOCCNC(=O)CC[C@H](NC(=O)CCCCCCCCCCCCCCCCC(=O)O)C(=O)O)C(=O)NCC(=O)N[C@@H](Cc1c[nH]c2ccccc12)C(=O)N[C@H](C(=O)N[C@@H](CC(=O)O)C(=O)N[C@@H](Cc1ccccc1)C(N)=O)[C@@H](C)CC ({C18 diacid-γGlu-AEEA-AEEA}-D[sY][Nle]GWIDF-NH2)
3 | 0.275 nM | 0.166 nM | 0.129 nM | 0.501 nM |  |  |  |  | CCCC[C@H](NC(=O)[C@H](Cc1c[nH]c2ccccc12)NC(=O)CNC(=O)[C@H](CC(C)C)NC(=O)[C@H](Cc1ccc(OS(=O)(=O)O)cc1)NC(=O)[C@H](CC(=O)O)NC(=O)COCCOCCNC(=O)COCCOCCNC(=O)CC[C@H](NC(=O)CCCCCCCCCCCCCCCCC(=O)O)C(=O)O)C(=O)N[C@@H](CC(=O)O)C(=O)N[C@@H](Cc1ccccc1)C(N)=O
4 | 3980 nM | 0.151 nM | > 1000 nM | 0.437 nM |  |  |  |  | CCCC[C@H](NC(=O)[C@H](Cc1c[nH]c2ccccc12)NC(=O)[C@H](CCC(=O)O)NC(=O)[C@H](CCCC)NC(=O)[C@H](Cc1ccc(OS(=O)(=O)O)cc1)NC(=O)[C@H](CC(=O)O)NC(=O)COCCOCCNC(=O)COCCOCCNC(=O)CC[C@H](NC(=O)CCCCCCCCCCCCCCCCC(=O)O)C(=O)O)C(=O)N[C@@H](CC(=O)O)C(=O)N[C@@H](Cc1ccccc1)C(N)=O ({C18 diacid-γGlu-AEEA-AEEA}-D[sY][Nle]EW[Nle]DF-NH2)
5 | 0.339 nM | 759 nM | 0.107 nM | 5.01 nM |  |  |  |  | CCCC[C@H](NC(=O)[C@H](Cc1ccc(O)cc1)NC(=O)[C@H](CC(=O)O)NC(=O)COCCOCCNC(=O)COCCOCCNC(=O)CC[C@H](NC(=O)CCCCCCCCCCCCCCCCC(=O)O)C(=O)O)C(=O)NCC(=O)N[C@@H](Cc1c[nH]c2ccccc12)C(=O)N[C@@H](CCCCNC(=O)Nc1ccccc1C)C(=O)N[C@@H](CC(=O)O)C(=O)N(C)[C@@H](Cc1ccccc1)C(N)=O
6 | 3.02 nM | 457 nM | 1.12 nM | 25.7 nM |  |  |  |  | CCCC[C@H](NC(=O)[C@H](Cc1ccc(OS(=O)(=O)O)cc1)NC(=O)[C@H](CC(=O)O)NC(=O)COCCOCCNC(=O)COCCOCCNC(=O)CC[C@H](NC(=O)CCCCCCCCCCCCCCCCC(=O)O)C(=O)O)C(=O)NCC(=O)N[C@@H](Cc1c[nH]c2ccccc12)C(=O)N[C@@H](CCCC)C(=O)N1C[C@H](O)C[C@H]1C(=O)N[C@@H](Cc1ccccc1)C(N)=O ({C18 diacid-γGlu-AEEA-AEEA}-D[sY][Nle]GW[Nle][Hyp]F-NH2)
7 |  |  |  |  | 7.79 | < 5 | 8.79 | < 6 | CC(C)C[C@H](NC(=O)[C@H](Cc1ccc(OS(=O)(=O)O)cc1)NC(=O)[C@H](CC(=O)O)NC(=O)COCCOCCNC(=O)COCCOCCNC(=O)CC[C@H](NC(=O)CCCCCCCCCCCCCCCCC(=O)O)C(=O)O)C(=O)NCC(=O)N[C@@H](Cc1c[nH]c2ccccc12)C(=O)N[C@@H](Cc1ccccc1)C(=O)N(C)[C@@H](CC(=O)O)C(=O)N(C)[C@@H](Cc1ccccc1)C(N)=O ({C18 diacid-γGlu-AEEA-AEEA}-D[sY]LGWF[NMeD][NMeF]-NH2)
8 | 2570 nM | 13.5 nM | 912 nM | 0.832 nM |  |  |  |  | CCCC[C@H](NC(=O)[C@H](Cc1c[nH]c2ccccc12)NC(=O)[C@H](CCCCN)NC(=O)[C@H](CCCC)NC(=O)[C@H](Cc1ccc(OS(=O)(=O)O)cc1)NC(=O)[C@H](CC(=O)O)NC(=O)COCCOCCNC(=O)COCCOCCNC(=O)CC[C@H](NC(=O)CCCCCCCCCCCCCCCCC(=O)O)C(=O)O)C(=O)N[C@@H](CC(=O)O)C(=O)N[C@@H](Cc1ccccc1)C(N)=O ({C18 diacid-γGlu-AEEA-AEEA}-D[sY][Nle]KW[Nle]DF-NH2)
9 | 0.115 nM | 603 nM | 0.501 nM | 16.6 nM |  |  |  |  | CCCC[C@H](NC(=O)[C@H](Cc1c[nH]c2ccccc12)NC(=O)CNC(=O)[C@H](CC(C)C)NC(=O)[C@H](Cc1ccc(OS(=O)(=O)O)cc1)NC(=O)[C@H](CC(=O)O)NC(=O)COCCOCCNC(=O)COCCOCCNC(=O)CC[C@H](NC(=O)CCCCCCCCCCCCCCCCC(=O)O)C(=O)O)C(=O)N(C)[C@@H](CC(=O)O)C(=O)N(C)[C@@H](Cc1cccc2ccccc12)C(N)=O ({C18 diacid-γGlu-AEEA-AEEA}-D[sY]LGW[Nle][NMeD][NMe1Nal]-NH2)
10 | 7.08 nM | > 10000 nM | 1.55 nM | > 1000 nM |  |  |  |  | CCCC[C@H](NC(=O)Cc1ccc(O)cc1)C(=O)NCC(=O)N[C@@H](Cc1c[nH]c2ccccc12)C(=O)N[C@@H](CCCC)C(=O)N(C)[C@H](CC(=O)O)C(=O)N[C@@H](Cc1ccccc1)C(N)=O (X1-[Nle]GW[Nle][dNMeD]F-NH2)
11 |  |  |  |  | 7.39 | 5.27 | 6.61 | < 6 | CCCC[C@H](NC(=O)[C@H](Cc1c[nH]c2ccccc12)NC(=O)CNC(=O)[C@H](CC(C)C)NC(=O)[C@H](Cc1ccc(OS(=O)(=O)O)cc1)NC(=O)[C@H](CC(=O)O)NC(=O)COCCOCCNC(=O)COCCOCCNC(=O)CC[C@H](NC(=O)CCCCCCCCCCCCCCCCC(=O)O)C(=O)O)C(=O)N1CCC[C@H]1C(=O)N(C)[C@@H](Cc1ccccc1)C(N)=O ({C18 diacid-γGlu-AEEA-AEEA}-D[sY]LGW[Nle]P[NMeF]-NH2)
12 | 0.933 nM | 2.04 nM | 0.162 nM | 0.417 nM |  |  |  |  | CCCC[C@H](NC(=O)[C@H](Cc1ccc(OS(=O)(=O)O)cc1)NC(=O)[C@H](CC(=O)O)NC(=O)COCCOCCNC(=O)COCCOCCNC(=O)CC[C@H](NC(=O)CCCCCCCCCCCCCCCCC(=O)O)C(=O)O)C(=O)NCC(=O)N[C@@H](Cc1c[nH]c2ccccc12)C(=O)N[C@@H](CCC(N)=O)C(=O)N[C@@H](CC(=O)O)C(=O)N[C@@H](Cc1ccccc1)C(N)=O ({C18 diacid-γGlu-AEEA-AEEA}-D[sY][Nle]GWQDF-NH2)
13 |  |  |  |  | 8.37 | < 5 | 9.41 | < 6 | CCCC[C@H](NC(=O)[C@H](Cc1c[nH]c2ccccc12)NC(=O)CNC(=O)[C@H](CC(C)C)NC(=O)[C@@H](NC(=O)[C@H](CC(=O)O)NC(=O)COCCOCCNC(=O)COCCOCCNC(=O)CC[C@H](NC(=O)CCCCCCCCCCCCCCCCC(=O)O)C(=O)O)[C@@H](C)CC)C(=O)N(C)[C@@H](CC(=O)O)C(=O)N(C)[C@@H](Cc1ccccc1)C(N)=O ({C18 diacid-γGlu-AEEA-AEEA}-DILGW[Nle][NMeD][NMeF]-NH2)
14 | 933 nM | 0.589 nM | 603 nM | 0.38 nM |  |  |  |  | CCCC[C@H](NC(=O)[C@H](Cc1c[nH]c2ccccc12)NC(=O)[C@@H]1CCCN1C(=O)[C@H](CCCC)NC(=O)[C@H](Cc1ccc(OS(=O)(=O)O)cc1)NC(=O)[C@H](CC(=O)O)NC(=O)COCCOCCNC(=O)COCCOCCNC(=O)CC[C@H](NC(=O)CCCCCCCCCCCCCCCCC(=O)O)C(=O)O)C(=O)N[C@@H](CC(=O)O)C(=O)N[C@@H](Cc1ccccc1)C(N)=O ({C18 diacid-γGlu-AEEA-AEEA}-D[sY][Nle]PW[Nle]DF-NH2)
15 |  |  |  |  | 9.3 | 5.08 | 10.22 | < 6 | CCCC[C@H](NC(=O)[C@H](Cc1c[nH]c2ccccc12)NC(=O)CNC(=O)[C@@H](CCCNC(=O)COCCOCCNC(=O)COCCOCCNC(=O)CC[C@H](NC(=O)CCCCCCCCCCCCCCCCC(=O)O)C(=O)O)NC(=O)Cc1ccc(O)cc1)C(=O)N(C)[C@H](CC(=O)O)C(=O)N(C)[C@@H](Cc1ccccc1)C(N)=O
16 | 15.5 nM | 3020 nM | 9.12 nM | 195 nM |  |  |  |  | CCCC[C@H](NC(=O)Cc1ccc(O)cc1)C(=O)NCC(=O)N[C@@H](Cc1c[nH]c2ccccc12)C(=O)N[C@@H](CCCC)C(=O)N(C)[C@@H](CC(=O)O)C(=O)N[C@@H](Cc1ccccc1)C(N)=O (X1-[Nle]GW[Nle][NMeD]F-NH2)
